Measured values: patent US10864273B2, “Thiobase compounds for photodynamic therapy” (CASE WESTERN RESERVE UNIVERSITY, priority 2015, dated 2020)
Read-outs that look alike come from different tables or passages of the source.

Columns and labels:
[1] = O2-saturated acetonitrile solution; previously measured / standard value; cited from earlier work
[2] = O2-saturated acetonitrile; literature / standard value; cited from earlier work
[3] = Femtosecond broadband transient absorption spectroscopy of the thiothymine series (intersystem crossing, triplet yield); type: physicochemical; conditions: for τISC intersystem crossing lifetime: probe 600 nm
Procedure: Femtosecond transient absorption spectroscopy was performed using a Ti— Sapphire regenerative amplifier laser system (Libra-HE, Coherent, Inc.; 800 nm, 100 fs, 4.0 W at 1 kHz). 2.6 W of the 800 nm beam were used to pump an optical parametric amplifier (TOPAS, Quantronix/Light Conversion) to generate the excitation beam at selected wavelengths of 320, 335, and 360 nm. Contributions to the excitation beam from other wavelengths and polarizations were removed by a reflective wavelength filter (λ-filter) and a Glan-Taylor polarizer, respectively, and the polarization was randomized using a depolarizing plate in order to prevent rotational effects from contributing to the dynamics, as described in details elsewhere.
A Helios spectrometer (Ultrafast Systems, LLC.) was used for pump-probe measurements. A fraction of the fundamental (800 nm) beam from the Libra-HE was used to generate white light continuum (WLC). The Helios spectrometer uses an optical delay line with a maximum delay of ˜3 ns for the 800 nm beam, which was used to pump a continuously-moving 2 mm CaF2 plate for generation of the WLC broadband probe pulse covering the spectral range from ˜320-700 nm. The probe light was then passed through a 730 nm low-pass dichroic optical filter, so as to block residual fundamental beam and to avoid saturating the complementary metal-oxide-semiconductor (CMOS) detectors. The probe pulse was then split into two beams, both of which were recollimated and focused into the optical fibers leading to their respective CMOS detectors. In this setup, one of the beams serves as reference, while the other is used to probe the sample of interest. A synchronized chopper wheel was used to block every other pump pulse, such that the difference in absorption between two consecutive measurements gives the transient spectrum. The excitation beam was attenuated to 1 μJ/pulse at the sample using a neutral density optical filter before entering the spectrometer. The excitation pulse was focused to a beam diameter three times larger than that of the probe beam at the sample position. Detection time windows of 20 and 200 ps were used in this work.
All solutions were prepared using pH 7.4 aqueous phosphate buffer, with a total phosphate concentration of 16 mM. The solution was continuously stirred in a 2 mm optical path length quartz cell (Starna Cells, Inc.) using a Teflon-coated magnetic stirring bar so as to bring fresh sample to the pump-probe region for each measurement. The solution in the cuvette was replaced with a fresh sample, from the same stock solution, every 5-7 scans, so that all scans had no more than 5% decrease in absorbance at the lowest-energy absorption-band maximum as determined by steady-state absorption spectroscopy.
All broadband transient absorption data were corrected for group velocity dispersion (GVD) of the WLC using a home-made LabView program (National Instruments, Inc.) as previously described. 3 Analysis of transient absorption kinetics was performed in Igor Pro 6.32A (WaveMetrics, Inc.) using the target analysis method, as described previously, and a sequential kinetic model convoluted with an instrument response function of ˜200 fs (FWHM). The instrument response was determined from the coherence signal of neat methanol generated at the sample cell. Global fitting analysis was performed using 15 to 30 representative kinetic traces covering the full range of probe wavelengths. At least three independent datasets (i.e., recorded on three different days) were used in the analysis and all uncertainties are reported as twice the standard deviation of the average lifetime. Decay associated spectra shown in FIG. 7A were extracted from the global fitting analysis of the transient decay traces taken every third probe wavelength across the entire WLC range.

[4] = Singlet oxygen quantum yield by phosphorescence at 1270 nm, thiothymine series; type: physicochemical; conditions: for ΦΔ singlet oxygen quantum yield: O2-saturated acetonitrile solution, 355 nm excitation, phenalenone standard
Procedure: Singlet oxygen phosphorescence measurements were performed using a modified Fluorolog-3 spectrometer (HORIBA, Jobin Yvon) in conjunction with a NIR sensitive photomultiplier tube (H10330A-45, Hamamatsu). A 450 W Xe lamp was used for steady state excitation to record singlet oxygen phosphorescence spectra and a Spectra Physics GCR-150-30 Nd:YAG laser (355 nm, 7 ns pulse width) was used for pulsed excitation to collect singlet oxygen phosphorescence decay traces at 1270 nm, which were stored on a digital oscilloscope (TDS 360, Tektronics).
O2-saturated acetonitrile solutions of the thiobases and standard (phenalenone) with matching absorbance at 355 nm (O.D.=0.3 at 1 cm optical path length) were prepared. The measurements were performed in a 1×1 cm quartz cell. Singlet oxygen quantum yields were determined from the phosphorescence intensity at 1270 nm at the end of the laser pulse using phenalenone as standard (ΦΔ=0.98).
While ultrafast internal conversion to the ground state and the low triplet yield in thymidine provide the nucleobase with its high degree of photostability, the near-unity triplet yields in the thiothymine series account for their potent photo-sensitization properties. We have obtained evidence for significant photoreactivity of these triplet states by performing time-resolved energy transfer experiments to molecular oxygen, thus generating singlet oxygen, as monitored by its characteristic phosphorescence at 1270 nm (FIG. 3 and FIG. 4). The singlet oxygen quantum yields for 4tThd and 2,4dtThy were determined using phenalenone as a standard (ΦΔ=0.98) and are summarized in Table 1. It should be remarked that quantification of the singlet oxygen yield is one of the primary methods used to determine the efficacy of a prospective photosensitizer for phototherapeutic applications. To our knowledge, this is the first work to report the singlet oxygen yield of 2,4dtThy. […] Consistent with the spectroscopic analysis herein, the singlet oxygen yield of 2tThy is smaller than those of 4tThd and 2,4dtThy.

[5] = Steady-state absorption spectroscopy, thymine series; type: physicochemical; conditions: phosphate buffer solution at pH 7.4
Text: 2-thiothymine (2tThy, 98% purity) was obtained from AK Scientific, 4-thiothymidine (4tThd, 99% purity) was obtained from Carbosynth Ltd., and 2-thiothymidine (2tThd) and 2,4-dithiothymine (2,4dtThy) were obtained from Sigma Aldrich. All compounds were used as received. The purity of these compounds was ensured by using fluorescence spectroscopy and by comparison with the published absorption maxima and their corresponding extinction coefficients. Phosphate buffer solutions were freshly prepared using 0.12 g of sodium dihydrogen phosphate and 0.089 g of disodium hydrogen phosphate dissolved in 100 mL of ultrapure water and adjusted to pH 7.4 using a 2 M NaOH solution. Steady-state absorption spectra were measured using a Cary 100 Bio spectrometer. All absorption spectra were corrected for the solvent background by subtraction of the absorption of the solvent.
Specifically, sulfur substitution of the C2 carbonyl in thymine results in about a 10 nm redshift in the absorption maximum, whereas substitution at the C4 position results in a redshift of about 70 nm. Remarkably, double-substitution results in about a 100 nm redshift of the lowest-energy absorption band of thymidine (ΔE=9905 cm^−1), without an appreciable change in the magnitude of the extinction coefficient at the corresponding wavelengths (1×10^4 M^−1 cm^−1). Replacement of an oxygen atom by a sulfur atom in a carbonyl bond is expected to shift the absorption spectrum to the red because the thiocarbonyl is weaker than the carbonyl bond and the excited electronic states in thiocarbonyl compounds are typically found at lower energies. However, the difference in bond strengths between a carbonyl and thiocarbonyl bond cannot solely explain the large spectral shift observed between 2tThy/2tThd and 4tThd. Furthermore, the redshift in the absorption spectrum of 2,4dtThy cannot simply be expressed as a linear combination of the absorption spectra of the 2tThy/2tThd and 4tThd derivatives. […] Glycosylation of 2tThy, generating 2tThd, results in a 2 nm redshift in the absorption maximum and about 2-fold increase in the molar absorptivity coefficients (FIG. 1B). The same effect has been previously documented in the natural bases and in other thiobases. Therefore, glycosylation of 2,4dtThy to form 2,4-dithiothymidine is expected to redshift the absorption spectrum slightly and to increase the molar absorptivity coefficients.

[6] = Estimated maximum UVA treatment depth in tissue from absorption cutoff and penetration depth curve; conditions: cutoff ε=1000 M^−1 cm^−1
Text: Longer wavelengths of light are able to penetrate deeper into tissues due to less scattering and reduced absorption by natural biomolecules (FIG. 5). Therefore, the redshifted absorption of 2,4dtThy as compared to 4tThd opens up the possibility for it to be effectively used as a photosensitizer in deeper tissue UVA-activated therapies. The maximum treatment depth for these two compounds was estimated by defining an arbitrary absorption cutoff of ε=1000 M^−1 cm^−1 (i.e., 371 nm for 4tThd and 395 nm for 2,4dtThy; FIG. 5). […] In order to account for this, the area under the penetration depth curve (FIG. 5) was integrated up to the respective absorption cutoff for each compound. Using this integration method the total increase in treatment depth of 2,4dtThy relative to 4tThd was determined to be about 67%. This increase likely serves as an upper bound limit for the actual relative increase because the molar absorptivity coefficients of the compounds will no doubt play a role. However, because the absorption of radiation at a given wavelength is not only dependent on a photosensitizer's molar absorptivity coefficients but also on its concentration in the tissue, our best estimation is that 2,4dtThy could facilitate UVA-activated treatment in tissues 23 to 67% deeper than those that can be effectively treated by 4tThd.

[7] = pH 7.4 phosphate buffer solution; previously reported values; cited from earlier work
[8] = cited from earlier work
[9] = test system: cancerous cell lines; conditions: in conjunction with a low dose of UVA radiation; in vitro; cited from earlier work
[10] = test system: bladder cancer; conditions: in conjunction with a low dose of UVA radiation; animal models; cited from earlier work
[11] = test system: 3D human skin models; conditions: in conjunction with a low dose of UVA radiation; lower epidermis of 3D human skin models; cited from earlier work
[12] = pH 7.4 phosphate buffer solution

Compound	ΦΔ singlet oxygen quantum yield [1]	ΦΔ singlet oxygen quantum yield [2]	increase in rate of intersystem crossing going from 2-thiothymine [3] [fold]	intersystem crossing rate increase relative to Thd [3] [fold]	triplet yield [3]	ΦT triplet quantum yield [3, 12]	τISC intersystem crossing lifetime [3, 12] [fs]	1O2 yield lower than that of the corresponding thiouracil derivative [4] [%]	singlet oxygen yield [4] [%]	ΦΔ singlet oxygen quantum yield [4]	maximum of lowest-energy absorption band [5] [nm]	ε at maximum of lowest-energy absorption band [5]	wavelength at arbitrary absorption cutoff [6] [nm]	ΦT triplet quantum yield [7]	triplet-triplet extinction coefficient ([8]; at 520 nm, previously reported, own determination in agreement) [M⁻¹ cm⁻¹]	reported triplet yield of the reference compound ([8]; reference for relative actinometry)	killing of cancerous cell lines [9]	treatment of bladder cancer [10]	induction of cytotoxic lesions [11]
O=C1C=Cc2cccc3cccc1c23 [phenalenone]	0.98	0.98																	
Cc1c[nH]c(=S)[nH]c1=S [2,4dtThy, 2,4-dithiothymine]			3.5	4.2	approximately 90%	>0.9	180±40	6	~50	0.46 ± 0.02	363	≈ 9.7×10^3 M^−1 cm^−1	395						
Cc1cn([C@H]2C[C@H](O)[C@@H](CO)O2)c(=O)[nH]c1=S [4tThd, 4-thiothymidine]				3.2			240 ± 20	14		0.42 ± 0.02			371	0.85 ± 0.15	2500 ± 700	1.0±0.1	effectively kill cancerous cell lines in vitro	treat bladder cancer in animal models	induce cytotoxic lesions in the lower epidermis of 3D human skin models
